# Measurements as given in paper PMC2630848, “Acetylcholinesterase-Inhibiting Activity of Pyrrole Derivatives from a Novel Marine Gliding Bacterium, Rapidithrix thailandica” (Marine Drugs, 2008).
# Target: acetylcholinesterase (AChE) (Tetronarce californica, UniProt P04058)
# Assay: Ellman colorimetric AChE assay with acetylthiocholine iodide and DTNB, […] nm, triplicate
# Type: biochemical
# acetylcholinesterase (AChE), sequence (P04058 22-564): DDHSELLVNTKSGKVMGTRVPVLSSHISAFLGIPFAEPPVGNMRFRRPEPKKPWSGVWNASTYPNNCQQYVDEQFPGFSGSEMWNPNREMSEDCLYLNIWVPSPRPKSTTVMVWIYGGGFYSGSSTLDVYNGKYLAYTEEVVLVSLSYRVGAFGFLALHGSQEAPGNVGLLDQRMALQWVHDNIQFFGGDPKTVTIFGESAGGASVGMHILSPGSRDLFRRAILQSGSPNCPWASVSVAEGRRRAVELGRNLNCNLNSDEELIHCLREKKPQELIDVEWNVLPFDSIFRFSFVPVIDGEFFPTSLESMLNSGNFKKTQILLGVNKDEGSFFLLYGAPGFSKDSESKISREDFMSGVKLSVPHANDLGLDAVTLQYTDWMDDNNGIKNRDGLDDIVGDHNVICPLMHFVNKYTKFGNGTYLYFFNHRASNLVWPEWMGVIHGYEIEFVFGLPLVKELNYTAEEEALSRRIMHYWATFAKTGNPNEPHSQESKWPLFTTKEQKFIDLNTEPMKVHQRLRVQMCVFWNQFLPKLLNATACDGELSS
structure (smiles),measurement,value
"Cc1nc2ccccc2c2cc[nH]c12 [compound 1, 4-Methyl-3H-pyrrolo[2,3-c]quinoline]",IC50,4.9 ± 0.9 µM
